These results are taken from PubChem BioAssay (NCI).

Values joined by “and” are separate entries in the source; they are usually repeats but may differ in a detail not shown here. Equal values may be shown once.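 Compound exposure: 48 hours, 5 concentrations, 96-well plates. The concentration for 50% growth inhibition is given as GI50. The concentration for full growth arrest is given as TGI.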

The subject of this assay is MDA-MB-468 breast. The assay can be described thus: NCI anticancer screen, dose series, 48 h.
Consider `Nc1n[nH]c2cccc(C#Cc3cccc(NC(=O)c4cccc(C(F)(F)F)c4)c3)c12`, for which the GI50 is 9.71 µM and the TGI was 28.2 µM.

With `O=C(NC(=O)c1c(F)cccc1F)Nc1cccc(Oc2ncc(Cl)cn2)c1`, the GI50 is 7.78 µM and the TGI was more than 100 µM.

As for `O=C(/C=C/c1ccccc1)Nc1ncc(Cc2ccccc2Cl)s1`, the GI50 is 0.37 µM and the TGI is more than 71.5 µM.

Regarding `CCCCCCCCn1ccc2cc(NC(=O)Cn3cc(CN4CCCCCC4)nn3)ccc21`, the GI50 was 1.65 µM and the TGI is 3.33 µM.

For `Cc1nnc(-c2ccc(C)c(-c3ccc(C(=O)Nc4cccc(C#N)c4)cc3)c2)o1`, the GI50 was 8.65 µM and the TGI is more than 25 µM.

Turning to `O=C(Oc1ccc[nH]c1=O)c1cc([N+](=O)[O-])cc([N+](=O)[O-])c1`, the GI50 is more than 100 µM and the TGI was more than 100 µM.

Turning to `CCOc1cccc(/C=N/NC(=O)c2cccc(Nc3ccnc(C(F)(F)F)c3)c2)c1O`, the GI50 was 0.327 µM and the TGI was more than 100 µM.

Take `CN(C)C/C=C/C(=O)Nc1ccc(C(=O)N[C@@]2(C)CCC[C@@H](Nc3ncc(Cl)c(-c4c[nH]c5ccccc45)n3)C2)nc1`: the GI50 was 0.0108 µM and the TGI came out at 0.0352 µM.

Turning to `COc1cc(C2c3cc4c(cc3OC(C)(N3CCCC3)C2C)OCO4)cc(OC)c1OC` (centres undefined), the GI50 is 0.419 µM and the TGI was determined as 31.2 µM.

Turning to `COC(=O)c1ccc2[nH]c(O)c(C(=Nc3ccc(N(C)C(=O)CN4CCN(C)CC4)cc3)c3ccc4c(c3)OCO4)c2c1`, the GI50 is 0.84 µM and the TGI was 2.38 µM.

As for `CN(c1ccc(NC(=O)Nc2c(Cl)cccc2Cl)cc1)c1ccnc(Nc2cccc(CS(C)(=O)=O)c2)n1`, the GI50 was 1.11 µM and the TGI was determined as 6.44 µM.

As for `CC/C=C\C[C@H]1CC=C2C(=O)C=C[C@@H]2CC=CCCCC(=O)O[C@@H](CCCCC)CC=C2C(=O)C=C[C@@H]2CC=CCCCC(=O)O[C@@H](CCCCC)CC=C2C(=O)C=C[C@@H]2CC=CCCCC(=O)O[C@@H](CCCCC)CC=C2C(=O)C=C[C@@H]2CC=CCCCC(=O)O1`, the GI50 is 1.7 µM and the TGI stood at 4.22 µM.

`COc1cc(Nc2ncccc2C(=O)Nc2nc3ccc(F)cc3s2)cc(OC)c1OC`: the GI50 was 1.22 µM and the TGI worked out at 8.85 µM.

Take `C=C(C)[C@@H]1CC[C@]2(COCCCN)CC[C@]3(C)[C@H](CC[C@@H]4[C@@](C)(CCCNCCCN)[C@H](C(=C)C)CC[C@]43C)[C@@H]12`: the GI50 is 1.87 µM and the TGI was found to be 3.75 µM.

Consider `Cc1cn(-c2cc(NC(=O)c3cccc(C#Cc4cccc5[nH]nc(N)c45)c3)cc(C(F)(F)F)c2)cn1`, for which the GI50 was 17.1 µM and the TGI was more than 100 µM.

As to `NC(CSC(c1ccccc1)(c1ccccc1)c1ccccc1)C(=O)NCC(=O)O` (centres undefined), the GI50 is 2.88 µM and the TGI amounted to 17.7 µM.

Take `C=C1c2c(C)nn(-c3ccc(C#CCOC4OC(CO)C(O)C(O)C4O)cc3)c2N(C)C23C[C@H]1C1(C)c4c(C)nn(-c5ccc(C#CCOC6OC(CO)C(O)C(O)C6O)cc5)c4N(C)C(C)(C[C@H]12)C3` (some centres undefined): the GI50 was 1.34 µM and the TGI was 2.73 µM.

For `O=C1C=CC(=O)C2C1C1(Cl)C(Cl)=C(Cl)C2(Cl)C1(Cl)Cl` (centres undefined), the GI50 is 3.29 µM and the TGI amounted to 11.3 µM.

For `CCCOC(=O)N[C@H]1CCc2c(Cl)c(OC)c(OC)c(OC)c2-c2ccc(SC)c(=O)cc21`, the GI50 is less than 0.01 µM and the TGI was found to be 16.3 µM.

For `CCN1C(=O)c2ccc3c4c(ccc(c24)C1=O)C(=O)N(CCCNCc1ccccc1OC)C3=O`, the GI50 was 0.326 µM and the TGI was 1.3 µM.

For the compound `O=C(O)c1ccc(CN2CCC(CN[C@@H]3C[C@H]3c3ccccc3)CC2)cc1`, the GI50 is more than 100 µM and the TGI was more than 100 µM.

For the compound `CS(=O)(=O)CCNCc1coc(-c2ccc3ncnc(Nc4ccc(OCc5ccccc5)cc4)c3c2)c1`, the GI50 is 0.543 µM and the TGI stood at 3.8 µM.

In the case of `CCN(CC)CCNC(Cc1ccccc1)c1ccc(OCc2ccccc2)cc1` (centres undefined), the GI50 is 4.24 µM and the TGI came to 18.3 µM.

For `C=CC(=O)N1CCC(Oc2cc3c(Nc4ccc(Cl)c(Cl)c4F)ncnc3cc2OC)CC1`, the GI50 was less than 0.001 µM; the TGI was < 0.01 µM and 0.0199 µM.

In the case of `O=c1[nH]c2ccccc2cc1-c1nc2ccc(Cl)cc2[nH]1`, the GI50 is 3.26 µM and the TGI is more than 100 µM.

For the compound `COc1ccc2c(c1)NC1=C(C(=O)OC1)C2c1cc(OC)c(OC)c(OC)c1` (centres undefined), the GI50 is less than 0.01 µM and the TGI was less than 0.01 µM.

Consider `Nc1ncc(-c2cnn(C3CCNCC3)c2)cc1-c1nc2cc(Cl)ccc2o1`, for which the GI50 is 1.65 µM and the TGI amounted to 3.29 µM.

Consider `O=C1NC(=S)S/C1=C/c1ccc2c(c1)OCO2`, for which the GI50 was more than 100 µM and the TGI was more than 100 µM.

For `CCOc1cc(C(C)(C)C)ccc1C1=N[C@H](c2ccc(Cl)cc2)[C@H](c2ccc(Cl)cc2)N1C(=O)N1CCN(CC#Cc2cccc3c2CN([C@@H]2CCC(=O)NC2=O)C3=O)CC1`, the GI50 was 0.0321 µM and the TGI is more than 100 µM.

Take `CCCC(C)c1ccc(OCCCCCCN2CCNCC2)cc1` (centres undefined): the GI50 is 1.71 µM and the TGI came out at 3.49 µM.

Regarding `CC1(C)N=C(N)N=C(N)N1c1ccc(CCC(=O)Nc2ccc(S(=O)(=O)F)cc2)c(Cl)c1`, the GI50 was 0.864 µM and the TGI was more than 100 µM.

Consider `COc1cccc2c1C(=N)c1c(O)c3c(c(O)c1C2=O)C[C@@](O)(C(C)=O)C[C@@H]3O[C@H]1C[C@H](N)[C@H](O)[C@H](C)O1`, for which the GI50 is 0.278 µM and the TGI amounted to 1.28 µM.
